# Patent US20080069809A1, “Compositions and methods for the diagnosis and treatment of cancer” (priority 2006, published 2008)
# Key:
# HL60 [1] = experiment: Apoptosis (sub-G1 DNA by FACS, caspase-3 activation) in HL60 leukemic cells; type: cell-based
# Protocol: (§1) The myeloid leukemic cell lines HL60, NB60, NB4, U937, K562 and KG1a were all grown in RPMI 1640 medium (Life Technologies, Paisley, United Kingdom) supplemented with 10% v/v fetal calf serum (Sear Laboratories International Crawley, United Kingdom), 100 U/mL penicillin, and 100 μg/mL streptomycin (Sigma Aldrich, Poole, United Kingdom) at 37° C. and 5% v/v CO2. AML blasts were isolated from patient bone marrow aspirates and peripheral blood of eight patients at diagnosis or relapse. Patients were not receiving AML therapy at time of sampling. Blasts were isolated by Ficoll density centrifugation and were cultured in serum-free insulin transferrin selenium-positive (ITS+) medium (Life Technologies) containing 300 ng/mL stem cell factor (SCF) and 10 ng/mL interleukin 3 (IL3; R and D Systems, Abingdon, United Kingdom) and antibiotics. […] Normal myeloblasts were isolated from cord blood or adult mobilized peripheral blood. Briefly, CD34^+ cells were indirectly selected from the mononuclear cell preparations using antibody-coated magnetic beads (Miltenyi Biotec, United Kingdom).
# To determine the effects of ingenol-3-angelate (PEP005), cells were incubated for up to 5 days with medium alone or PEP005 at a range of concentrations from 0.2 nM to 20 μM. PEP005 was extracted from Euphorbia peplus and supplied as a 98.5% pure preparation by Peplin Limited (Brisbane, Australia) as a dry pellet and was made up to a stock of […] in acetone on a weekly basis. Stocks were stored at 4° C. and diluted into medium when required. Final acetone concentration was never more than 0.1% v/v. Apoptosis and differentiation were assessed after 1 to 5 days.
# NB4 [2] = experiment: Apoptosis (sub-G1 DNA by FACS) in NB4 leukemic cells; type: cell-based
# Protocol: as §1
# (§2) To determine the effects of ingenol-3-angelate (PEP005), cells were incubated for up to 5 days with medium alone or PEP005 at a range of concentrations from 0.2 nM to 20 μM. […] Apoptosis and differentiation were assessed after 1 to 5 days.
# HL60 [3] = experiment: Differentiation (CD11b expression) in HL60 cells; type: cell-based
# Protocol: (§3) The myeloid leukemic cell lines HL60, NB60, NB4, U937, K562 and KG1a were all grown in RPMI 1640 medium (Life Technologies, Paisley, United Kingdom) supplemented with 10% v/v fetal calf serum (Sear Laboratories International Crawley, United Kingdom), 100 U/mL penicillin, and 100 μg/mL streptomycin (Sigma Aldrich, Poole, United Kingdom) at 37° C. and 5% v/v CO2. AML blasts were isolated from patient bone marrow aspirates and peripheral blood of eight patients at diagnosis or relapse. Patients were not receiving AML therapy at time of sampling. […] Blast purity ranged from 80% to 95%, as assessed by expression of CD34. […]
# (§4) Cell differentiation was determined by staining of cells with anti-CD11b antibody as a general early marker of myeloid differentiation. In studies with HL60 cells, PEP005-treated and 20 nM phorbol myristate (PMA)-treated (Sigma Aldrich) cells were also assessed for their ability to phagocytose complement-coated yeast, a marker of a fully differentiated myeloid cell, as previously described (Toksoz et al, Leukemia Res 6:491-498, 1982). […] Images were captured with a SPOT2 cameria (Diagnostic Instructions, Sterling Heights, Mich.) and analyzed using Image-Pro 4.0 software (Media Cybernetics, Silver Spring, Md.).
# NB4 [4] = experiment: Differentiation (CD11b expression) in NB4 cells; type: cell-based; settings: treated 5 days
# Protocol: as §3, §4
# KG1a = experiment: Differentiation (CD11b expression) in KG1a cells; type: cell-based
# Protocol: (§5) The myeloid leukemic cell lines HL60, NB60, NB4, U937, K562 and KG1a were all grown in RPMI 1640 medium (Life Technologies, Paisley, United Kingdom) supplemented with 10% v/v fetal calf serum (Sear Laboratories International Crawley, United Kingdom), 100 U/mL penicillin, and 100 μg/mL streptomycin (Sigma Aldrich, Poole, United Kingdom) at 37° C. and 5% v/v CO2. AML blasts were isolated from patient bone marrow aspirates and peripheral blood of eight patients at diagnosis or relapse. Patients were not receiving AML therapy at time of sampling. Blasts were isolated by Ficoll density centrifugation and were cultured in serum-free insulin transferrin selenium-positive (ITS+) medium (Life Technologies) containing 300 ng/mL stem cell factor (SCF) and 10 ng/mL interleukin 3 (IL3; R and D Systems, Abingdon, United Kingdom) and antibiotics. Blast purity ranged from 80% to 95%, as assessed by expression of CD34. Normal myeloblasts were isolated from cord blood or adult mobilized peripheral blood. Briefly, CD34^+ cells were indirectly selected from the mononuclear cell preparations using antibody-coated magnetic beads (Miltenyi Biotec, United Kingdom).
# as §4, with “1982). The ingestion of three or more yeasts was taken as a positive result. In normal cord blood or adult bone marrow myeloblasts, loss of CD34 was taken as a marker of differentiation. Isotype-matched controls were used and all antibodies were from DAKO (Cambridge, United Kingdom).” for “1982).”
# HL60 [5] = experiment: Phagocytosis of complement-coated yeast by HL60 cells; type: cell-based; settings: after 3 days of treatment, PMA 20 nM
# Protocol: Cell differentiation was determined by staining of cells with anti-CD11b antibody as a general early marker of myeloid differentiation. In studies with HL60 cells, PEP005-treated and 20 nM phorbol myristate (PMA)-treated (Sigma Aldrich) cells were also assessed for their ability to phagocytose complement-coated yeast, a marker of a fully differentiated myeloid cell, as previously described (Toksoz et al, Leukemia Res 6:491-498, 1982). The ingestion of three or more yeasts was taken as a positive result. In normal cord blood or adult bone marrow myeloblasts, loss of CD34 was taken as a marker of differentiation. Isotype-matched controls were used and all antibodies were from DAKO (Cambridge, United Kingdom). […] Cells were also used to prepare cytospins, which were then differentially stained using a commercial May-Grünwald-Ginesa stain (Diff-Kwik; Gamidor, Abingdon, United Kingdom) to identify cells with a blast or differentiated or apoptotic morphology. Slides were examined using a Zeiss III RS brightfield microscope equipped with a 40×/0.75 water-immersion objective (Carl Zeiss, Jena, Germany). Images were captured with a SPOT2 cameria (Diagnostic Instructions, Sterling Heights, Mich.) and analyzed using Image-Pro 4.0 software (Media Cybernetics, Silver Spring, Md.).
# primary AML blasts = experiment: Apoptosis in primary AML blasts from patient bone marrow; type: cell-based, human
# Protocol: as §5, §2, §4
# PKC-δ = target: T1, PKC-δ (Homo sapiens, UniProt Q05655); experiment: PKC-δ cleavage to 40-kDa fragment in HL60 cells (Western blotting); type: cell-based; settings: 20 nM PEP005 for up to 9 hours
# T1 construct: endogenous in cells; host or cells: HL60
# T1 sequence (Q05655 whole entry, the tested form may be a part): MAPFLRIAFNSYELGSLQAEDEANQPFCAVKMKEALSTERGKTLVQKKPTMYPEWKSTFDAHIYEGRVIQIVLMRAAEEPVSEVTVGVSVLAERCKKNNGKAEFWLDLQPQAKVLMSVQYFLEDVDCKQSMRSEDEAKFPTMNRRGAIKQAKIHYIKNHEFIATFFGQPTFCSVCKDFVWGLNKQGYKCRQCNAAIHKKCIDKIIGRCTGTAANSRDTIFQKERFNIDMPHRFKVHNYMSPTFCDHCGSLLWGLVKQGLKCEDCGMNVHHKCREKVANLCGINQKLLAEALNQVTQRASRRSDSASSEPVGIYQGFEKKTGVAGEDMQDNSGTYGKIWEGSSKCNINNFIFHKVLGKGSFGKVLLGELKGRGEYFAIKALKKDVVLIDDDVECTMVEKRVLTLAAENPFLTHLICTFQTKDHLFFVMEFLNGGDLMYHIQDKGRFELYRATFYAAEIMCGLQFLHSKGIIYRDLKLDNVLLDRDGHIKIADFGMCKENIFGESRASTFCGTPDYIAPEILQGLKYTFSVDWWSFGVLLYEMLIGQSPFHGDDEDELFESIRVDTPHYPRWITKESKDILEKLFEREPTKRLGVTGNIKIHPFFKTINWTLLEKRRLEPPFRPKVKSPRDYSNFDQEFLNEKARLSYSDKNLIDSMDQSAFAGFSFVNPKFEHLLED
# Protocol: PKC isoenzyme expression in leukemic cell lines was determined by Western blotting. Cells (0.5×10^6) were lysed in lysis buffer (20 mM Tris [tris(hydroxymethyl-aminomethane]-HCl, pH 7.4, containing 150 mM NaCl, 0.5 mM EDTA [ethylenediaminetertraacetic acid], 1 mM dithiothreitol, 1 mM phenymethlsulfonylfuoride, 10 μg/mL of aprotinin, leupeptin, and pepstatin A, and 1% Triton-X-100). the lysate was spun at 1000 g for 10 minutes to isolate nuclei and was then combined 1:1 with sodium dodecyl sulfate (SDS) sample buffer and boiled for 5 minutes. The extracts were then analyzed by Western blotting using antibodies to the major isoenzymes found in myeloid cells, namely PKC-α, PKC-β, PKC-δ and PKC-ξ (all purchased from Santa Cruz Biotechnology, Santa Cruz, Calif.). Blots were developed using an enhanced chemiluminescence (ECL) method (Amersham Pharmacia, Buckinghamshire, United Kingdom).
# caspase-3 = experiment: Caspase-3 phosphorylation in 32PO4-labeled HL60 cells; type: cell-based; settings: 20 nM PEP005
# Protocol: To determine if PEP005 induced caspase-3 phosphorylation, HL60 cells were incubated with 1.5×10^7 Bq/mL ^32PO4 (Amersham Pharmacia) in phosphate-free medium for 3 hours prior to addition of 20 nM PEP005 or PEP005 and 5 μM rottlerin (Calbiochem, Nottingham, United Kingdom). Cells were then lysed and caspase-3 was immunoprecipitated with an anti-caspase-3 antibody (BD Pharmingen, Oxford, United Kingdom) or an irrelevant isotype-matched control antibody (DAKO) and the immunoprecipitate was isolated using an anti-mouse immunoglobulin G (IgG) antibody (DAKO) and protein G-coated magnetic beads (microbeads; Miltenyi Biotech). The isolate was taken up in SDS sample buffer and run on a 10% w/v SDS-polyacrylamide gel electrophoresis (PAGE) gel and the labeled proteins were visualized using a phosphorimager.
# [6] = sub-G1 DNA by FACS, treated 5 days
# [7] = within the first 1 to 2 days of treatment
compound,measurement,setting,value
"C/C=C(/C)C(=O)O[C@H]1C(C)=C[C@]23C(=O)[C@@H](C=C(CO)[C@@H](O)[C@]12O)[C@H]1[C@@H](C[C@H]3C)C1(C)C [PEP005, ingenol-3-angelate]",apoptosis (caspase-3 activity),"HL60 [1]; after 3 days of treatment, PMA 20 nM",apoptosis was the dominant effect
same,"PEP005 concentration with optimal effect, apoptosis",HL60 [1]; [6],20 nM
same,fraction of cells entering apoptosis (kinetic study),HL60 [1]; [7],up to half of the cells entering apoptosis
same,"PEP005 concentration with optimal effect, apoptosis",NB4 [2]; [6],20 nM
same,fraction of cells entering apoptosis (kinetic study),NB4 [2]; [7],up to half of the cells entering apoptosis
same,synergy with ATRA in CD11b differentiation response,"HL60 [3]; 10 nM ATRA and 20 nM PEP005 in combination, 5 days",able to synergize with ATRA
same,"PEP005 concentration with optimal effect, CD11b expression",HL60 [3]; treated 5 days,20 nM
same,"PEP005 concentration with optimal effect, CD11b expression",NB4 [4],20 nM
same,differentiation response,KG1a; agent alone,did not respond
same,CD11b expression,KG1a; even at 20 μM PEP005,did not enter apoptosis or show CD11b expression
same,differentiation to phagocytes (ability to phagocytose yeast),HL60 [5],did not lead to production of phagocytic cells
same,viable blast cells / morphology,primary AML blasts; after 48 hours of treatment with 20 nM PEP005,few viable AML blast cells remained
same,patient AML blast samples induced to enter apoptosis,primary AML blasts; blasts of eight AML patients,seven of these were induced to enter apoptosis
same,lowest PEP005 concentration inducing apoptosis,primary AML blasts; seven responsive AML samples,2 nM
same,production of the 40-kDa fragment of PKC-δ,PKC-δ,produced rapidly
same,induction of caspase-3 phosphorylation,caspase-3,able to induce caspase-3 phosphorylation
